Laboratory results reported in ChEMBL document CHEMBL1201862, “PubChem BioAssay data set” (2004).
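Growth conditions: 96-well plates. Treatment: test compound, 48 hours, 5 concentrations. Analysis: linear interpolation between bracketing concentrations; unreached endpoints set to highest concentration. GI50 marks 50% less growth.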 Calls of active or inactive are those of the source. Rule as the data show it: active = GI50 up to about 1.1 µM and inactive = higher.

Legend:
Test in all cases: growth of human tumour cells (NCI), 48 h
HOP-62 = system: HOP-62
LOX IMVI = system: LOX IMVI
CAKI-1 = system: CAKI-1
SK-OV-3 = system: SK-OV-3
BT-549 = system: BT-549
KM12 = system: KM12
786-0 = system: 786-0
SNB-19 = system: SNB-19
SF-295 = system: SF-295
M14 = system: M14
K562 = system: K562
OVCAR-4 = system: OVCAR-4
SN12C = system: SN12C
HCT-116 = system: HCT-116
UACC-257 = system: UACC-257
Hs-578T = system: Hs-578T
A498 = system: A498
SR = system: SR

Measured: GI50

COC(=O)/C=C\C(C#N)(C#N)/N=C/c1cccc(OC)c1
inactive: HOP-62 > 42.7 µM | LOX IMVI 7.16 µM | CAKI-1 1.92 µM | SK-OV-3 25.3 µM | BT-549 7.74 µM | KM12 16.4 µM | 786-0 3.51 µM | SNB-19 23.3 µM | SF-295 32.7 µM | M14 4.12 µM | K562 11.1 µM | OVCAR-4 6.67 µM | SN12C 11.9 µM | HCT-116 3.44 µM | UACC-257 14 µM | Hs-578T 18.1 µM | A498 18.6 µM

O=C(O)CCC(NC(=O)c1ccc(Nc2nc3ccccc3nc2C(=O)O)cc1)C(=O)O (centres undefined)
inactive: HOP-62 > 100 µM | CAKI-1 > 100 µM | SK-OV-3 > 100 µM | BT-549 > 100 µM | KM12 > 100 µM | 786-0 > 100 µM | SNB-19 > 100 µM | SF-295 > 100 µM | M14 > 100 µM | SR > 100 µM | K562 > 100 µM | OVCAR-4 > 100 µM | SN12C > 100 µM | HCT-116 > 100 µM | UACC-257 > 100 µM | Hs-578T > 100 µM

CC(C)(Sc1cc(C(C)(C)C)c(O)c(C(C)(C)C)c1)Sc1cc(C(C)(C)C)c(O)c(C(C)(C)C)c1 [PROBUCOL]
inactive: HOP-62 > 100 µM | LOX IMVI > 100 µM | CAKI-1 > 100 µM | SK-OV-3 > 100 µM | BT-549 > 100 µM | KM12 > 100 µM | 786-0 > 100 µM | SNB-19 > 100 µM | SF-295 > 100 µM | M14 > 100 µM | K562 1.81 µM | OVCAR-4 > 100 µM | SN12C > 100 µM | HCT-116 > 100 µM | UACC-257 > 100 µM | Hs-578T > 100 µM | A498 > 100 µM

CCOC(=O)c1[nH]c2nc(SC)nc(NC)c2c1N
inactive: HOP-62 > 100 µM | LOX IMVI 43.2 µM | CAKI-1 > 100 µM | SK-OV-3 > 100 µM | BT-549 > 100 µM | KM12 > 100 µM | 786-0 > 100 µM | SNB-19 > 100 µM | SF-295 > 100 µM | M14 92.7 µM | K562 90.2 µM | OVCAR-4 > 100 µM | SN12C > 100 µM | HCT-116 > 100 µM | UACC-257 > 100 µM | Hs-578T > 100 µM | A498 > 100 µM

COC(=O)c1c(C)c2c(c(C)c1O)OC(=O)c1c(C)cc(O)c(C=O)c1O2
inactive: HOP-62 > 100 µM | SK-OV-3 20 µM | BT-549 > 100 µM | KM12 > 100 µM | 786-0 > 100 µM | SNB-19 > 100 µM | SF-295 > 100 µM | M14 > 100 µM | SR > 100 µM | K562 > 100 µM | OVCAR-4 > 100 µM | SN12C > 100 µM | HCT-116 > 100 µM | UACC-257 > 100 µM | Hs-578T 12.5 µM

O=C(Nc1cccc2ccccc12)c1ccccc1
inactive: HOP-62 81.3 µM | LOX IMVI > 100 µM | CAKI-1 99.1 µM | SK-OV-3 > 100 µM | BT-549 > 100 µM | KM12 > 100 µM | 786-0 > 100 µM | SNB-19 > 100 µM | SF-295 > 100 µM | M14 > 100 µM | K562 76.6 µM | OVCAR-4 24.5 µM | SN12C > 100 µM | HCT-116 > 100 µM | UACC-257 > 100 µM | Hs-578T > 100 µM | A498 > 100 µM
